# Data taken from EPA's ToxValDB 9.5.
# System: Rattus norvegicus
# Settings: oral
# [1] = subchronic, gavage, M, Sprague-Dawley, Hematology: RBC decrease, Hgb decrease, Ret increase + Blood Chemistry: Cho increase, PL increase + Absolute Organ Weight: Kidney increase…
# [2] = chronic, duration: 92 days, gavage, M/F, Fischer 344, Histopathology: Liver-Proliferation of smooth endoplasmic reticulum, parenchymal cell (Electron-microscopic examination) Liver-Decrease in …
# [3] = subchronic, gavage, M, Sprague-Dawley, Clinical Observation: Salivation PtosisEmaciation Locomotor activity decrease + Body Weight Changes: Gain decrease + Blood Chemistry: TP …
# [4] = short-term, duration: 28 days, gavage, F, Sprague-Dawley, Clinical Observation: Staggering gait Locomotor activity decrease, Lacrimation Prone position Loose stool + Functional Observational Battery…
# [5] = short-term, duration: 28 days, gavage, M, Sprague-Dawley, Clinical Observation: Staggering gait Locomotor activity decrease, Lacrimation Prone position Loose stool + Functional Observational Battery…
# [6] = short-term, duration: 28 days, gavage, F, Sprague-Dawley, Clinical Observation: Locomotor activity decrease, Crouching position + Functional Observational Battery: Reactivity decrease + Body Weight …
# [7] = short-term, duration: 28 days, gavage, M, Sprague-Dawley, Clinical Observation: Locomotor activity decrease, Crouching position + Functional Observational Battery: Reactivity decrease + Body Weight …
smiles,measurement,setting,value
"CN(C)CCCCCCN(C)C [N,N,N',N'-Tetramethyl-1,6-hexanediamine]",NOEL,"subchronic, gavage, M, Sprague-Dawley, Histopathology: Lungs/ bronchus a""Vacuolation, bronchial epithelium Epididymis- Decrease, sperm",10 mg/kg-day
Sc1ccccc1 [Benzenethiol],LOAEL,[1],0.4 mg/kg-day
same,LOEL,[1],0.4 mg/kg-day
same,NOAEL,[1],< 0.4 mg/kg-day
same,NOEL,[1],< 0.4 mg/kg-day
O=c1[nH]c(=O)n([C@@H]2O[C@H](CO)[C@@H](O)[C@@H]2O)cc1/C=C/Br [Bravavir],NOEL,"chronic, duration: 182 days, gavage, M/F, Wistar, Deaths + Clinical Observation: Soiled eyelid Smudge, perioral, nose Flush, ear auricle Polyuria Soiled perineal region Decrease or loss of …",80 mg/kg-day
"CCCCN(CCCC)C(=S)[S-].CCCCN(CCCC)C(=S)[S-].[Cu+2] [Bis(N,N-dibutyldithiocarbamato)copper]",NOEL,"subchronic, gavage, M, Sprague-Dawley, Urinalysis: Protein increase, Cl increase + Blood Chemistry: Cho increase + Relative Organ Weight: Adrenal decrease",< 40 mg/kg-day
OC[C@@H](O)[C@@H](O[C@@H]1O[C@H](CO)[C@H](O)[C@H](O)[C@H]1O)[C@H](O)[C@@H](O)CO [Lactitol],NOEL,"subchronic, gavage, M/F, SLC:SD, Clinical Observation: Loose stool, Diarrhea Soiled fur, Salivation Abdominal distention + Body Weight Changes: decrease + Food Consumption: …",< 625 mg/kg-day
S=c1[nH]c(=S)[nH]c(=S)[nH]1 [Trithiocyanuric acid],NOEL,"subchronic, gavage, M, Sprague-Dawley, Deaths + Clinical Observation: Black area of the pinna Nodule of the tail Dark purple distally of the tail Reddish urine + Body Weight …",< 62.5 mg/kg-day
CN(C)C(=O)c1nc(CNC(=O)CN)n(-c2ccc(Cl)cc2C(=O)c2ccccc2Cl)n1.Cl [Rilmazafone hydrochloride],NOAEL,[2],25 mg/kg-day
same,NOEL,[2],1 mg/kg-day
CC(C)(C)c1cc(CCC(=O)O)cc(C(C)(C)C)c1O [Fenozan],NOEL,"subchronic, duration: 90 days, gavage, M/F, Blood Chemistry: GPT increase, TP increase, GLB increase, T-CHO increase + Organ Weight: Liver increase + Histopathology: Liver - …",3 mg/kg-day
O=C1c2ccccc2C(=O)c2c(Cl)cccc21 [1-Chloroanthraquinone],NOEL,"short-term, duration: 28 days, gavage, M/F, Sprague-Dawley, Clinical Observation: Brown urine + Functional Observational Battery: Landing foot splay decrease, Locomotor activity decrease + Food …",< 4 mg/kg-day
"Nc1ccccc1OCCOc1ccccc1N [2,2'-[Ethane-1,2-diylbis(oxy)]dianiline]",NOEL,"short-term, duration: 28 days, gavage, M/F, Blood Chemistry: Alb increase, T-Bil increase, TG decrease, GPT increase, TP increase + Organ Weight: Liver increase, Kidney increase + …",< 50 mg/kg-day
CC1OC(C)OC(C)O1 (stereo not drawn) [Paraldehyde],NOEL,"short-term, duration: 28 days, gavage, M/F, Sprague-Dawley, Clinical Observation: Locomotor activity decrease + Functional Observational Battery: Width of straddle increase + Relative Organ Weight: …",100 mg/kg-day
CCn1cc(C(=O)[O-])c(=O)c2cc3occc3nc21.[Na+],NOEL,"chronic, duration: 26 weeks, gavage, M/F, Clinical Observation: Salivation + Body Weight Changes: Gain decrease + Hematology: WBC decrease + Blood Chemistry: A/G increase + Organ …",10 mg/kg-day
CC(Cl)CCCC(Cl)CCCC(Cl)CCCC(Cl)CCCC(Cl)CCCC(Cl)CCCl (stereo not drawn) [Chloro C22-26 alkanes],NOEL,"subchronic, duration: 13 weeks, gavage, F, Fischer 344, Histopathology: Liver-Granuloma inflammation",< 235 mg/kg-day
CCO[Si](CCCN)(OCC)OCC [3-Aminopropyltriethoxysilane],NOAEL,"chronic, duration: 91 days, gavage, M/F, CD(SD), Deaths + Clinical Observation: Rales Wet and/or dried material (red, yellow, brown and/or clear) on various body surfaces Abnormal excreta…",200 mg/kg-day
"CC1(C)COC(=O)C1O (stereo not drawn) [2(3H)-Furanone, dihydro-3-hydroxy-4,4-dimethyl-]",NOAEL,"short-term, duration: 28 days, gavage, M, Sprague-Dawley, Blood Chemistry: K increase",200 mg/kg-day
Oc1cccc(O)c1 [Resorcinol],NOEL,"subchronic, duration: 13 weeks, gavage, M/F, Fischer 344, Deaths + Clinical Observation: Tremor + Blood Chemistry: Ch E decrease + Absolute Organ Weight: Adrenal increase + Relative Organ Weight: …",< 32 mg/kg-day
CC(O)COc1ccc(C(C)(C)c2ccc(OCC(C)O)cc2)cc1 (stereo not drawn) [Bisphenol A bis(polypropylene glycol) ether],LOAEL,[3],120 mg/kg-day
same,LOEL,[3],120 mg/kg-day
same,NOAEL,[3],30 mg/kg-day
same,NOEL,[3],30 mg/kg-day
CC(C)c1ccc2oc3nc(N)c(C(=O)O)cc3c(=O)c2c1 [Amlenanox],NOEL,"subchronic, duration: 35 days, gavage, M/F, Wistar, Blood Chemistry: ALP increase + Absolute Organ Weight: Cecum increase, Stomach increase + Relative Organ Weight: Carcass increase, Cecum …",200 mg/kg-day
CCOC(=O)CC#N [Ethyl cyanoacetate],NOAEL,"subchronic, duration: 90 days, gavage, M/F, Wistar, Urinalysis: Volume increase + Hematology: WBC decrease, RBC decrease, HGB decrease, HTC decrease + Histopathology: Liver: Inflammation, …",100 mg/kg-day
[CH3][Sn]([Cl])([Cl])[Cl] [Trichloromethylstannane],NOAEL,"subchronic, duration: 90 days, diet, M/F, Wistar, Food Consumption: increase + Urinalysis: Volume increase, Specific gravity decrease, pH increase, Crystals increase + Hematology: RBC …",14.4 mg/kg-day
"Cc1cc(Cc2cc(C)cc(C(C)(C)C)c2O)c(O)c(C(C)(C)C)c1 [2,2'-Methylenebis(4-methyl-6-tert-butylphenol)]",NOEL,"subchronic, diet, F, Wistar, Deaths: Survival rate.6 (45% % ).0 (20% % ) + Body Weight Changes: decrease + Food Consumption: decrease + Hematology: Hgb decrease RBC …",< 104 mg/kg-day
same,NOEL,"subchronic, diet, M/F, Wistar, Deaths: Survival rate.6 (45% % ).0 (20% % ) + Body Weight Changes: decrease + Food Consumption: decrease + Hematology: Hgb decrease RBC …",< 0.12%
same,NOEL,"subchronic, diet, M/F, Wistar, Hematology: Hgb increasemg/kg/ + Blood Chemistry: Cho increasemg/kg/ + Absolute Organ Weight: Liver increasemg/kg/ + Relative Organ …",1.92 mg/kg-day
"CC(C)(c1cc(Br)c(OCC(Br)CBr)c(Br)c1)c1cc(Br)c(OCC(Br)CBr)c(Br)c1 (stereo not drawn) [Tetrabromobisphenol A-bis(2,3-dibromopropyl ether)]",NOEL,"subchronic, gavage, Sprague-Dawley",1000 mg/kg-day
N#CN=C(N)N [Cyanoguanidine],NOAEL,"subchronic, duration: 44 days, gavage, M, CD(SD)",1000 mg/kg-day
"O=C/C=C/[O-].[Na+] [Malonaldehyde, sodium salt]",NOEL,"subchronic, duration: 13 weeks, gavage, M/F, Fischer 344, Deaths + Clinical Observation: Rough hair coats Red exudate around the eyes Impairment of hindleg motor ability + Body Weight Changes: …",30 mg/kg-day
"O=C(Nc1ccccc1SSc1ccccc1NC(=O)c1ccccc1)c1ccccc1 [2,2'-Dibenzoylaminodiphenyl disulfide]",NOEL,"subchronic, gavage, M, Sprague-Dawley, Clinical Observation: Salivation + Blood Chemistry: ALT increase, Glu increase + Absolute Organ Weight: Liver increase + Relative Organ …",300 mg/kg-day
"O=Cc1cccc(Cl)c1Cl [2,3-Dichlorobenzaldehyde]",NOEL,"short-term, duration: 28 days, gavage, M/F, Clinical Observation: Salivation + Body Weight Changes: Body weight gain decrease + Blood Chemistry: GPT increase, A/G increase + Organ …",< 20 mg/kg-day
NC(=O)Nc1ccccc1 [1-Phenylurea],LOEL,[4],400 mg/kg-day
same,NOEL,[4],200 mg/kg-day
same,LOEL,[5],200 mg/kg-day
same,NOEL,[5],100 mg/kg-day
Clc1ccc(OCOCC#CI)cc1 [1-Chloro-4-(((3-iodo-2-propynyl)oxy)methoxy)benzene],NOEL,"subchronic, gavage, M, Sprague-Dawley, Clinical Observation: Salivation Loose stool + Body Weight Changes: decreaseor decrease(trend) + Food Consumption: decrease + Hematology: …",8 mg/kg-day
"N#Cc1cccc([N+](=O)[O-])c1 [Benzonitrile, 3-nitro-]",NOEL,"short-term, duration: 28 days, gavage, M/F, Deaths + Clinical Observation: Paralytic gait Piloerection Reddish tears + Body Weight Changes: Body weight gain decrease + Hematology: WBC…",< 0.5 mg/kg-day
"CC(C)(C)CC(C)(C)c1cc(O)c(C(C)(C)CC(C)(C)C)cc1O [2,5-Bis(1,1,3,3-tetramethylbutyl)hydroquinone]",NOEL,"subchronic, gavage, M, Sprague-Dawley, Clinical Observation: Soft stool Soiled perineal region + Body Weight Changes: Gain decrease + Food Consumption: increase + Hematology: Hgb …",10 mg/kg-day
[Cl-].[Cl-].[Ti+4].c1cc[cH-]c1.c1cc[cH-]c1 [Titanocene dichloride],NOEL,"subchronic, duration: 13 weeks, gavage, M/F, Fischer 344, Deaths + Body Weight Changes: decrease + Absolute Organ Weight: Liver increase, Thymus decrease + Relative Organ Weight: kidney increase, …",< 8 mg/kg-day
CCC(C)=NO [2-Butanone oxime],NOEL,"subchronic, drinking water, F, Fischer 344, Clinical Observation: Dark eyes Pale ears + Body Weight Changes: decrease + Water Consumption: decrease + Hematology: Hct decrease, Hgb …",< 30 mg/kg-day
same,NOEL,"subchronic, drinking water, M/F, Fischer 344, Clinical Observation: Dark eyes Pale ears + Body Weight Changes: decrease + Water Consumption: decrease + Hematology: Hct decrease, Hgb …",< 47.4 mg/kg-day
Clc1cccc2ccccc12 [1-Chloronaphthalene],LOEL,[6],100 mg/kg-day
same,NOEL,[6],30 mg/kg-day
same,LOEL,[7],100 mg/kg-day
same,NOEL,[7],30 mg/kg-day
OCC1CCCO1 (stereo not drawn) [Tetrahydrofurfuryl alcohol],NOEL,"short-term, duration: 28 days, gavage, M/F, Sprague-Dawley, Clinical Observation: Locomotor activity increase, Locomotor activity decrease, Prone position + Functional Observational Battery: Grip …",40 mg/kg-day
CCC[N+](=O)[O-] [1-Nitropropane],NOAEL,"short-term, duration: 28 days, gavage, M/F, Sprague-Dawley, Deaths + Clinical Observation: Salivation Red/brown staining around the mouth Hunched posture + Body Weight Changes: Body weight gain …",30 mg/kg-day
Nc1ccc([N+](=O)[O-])cc1O [2-Amino-5-nitrophenol],NOEL,"subchronic, duration: 13 weeks, gavage, M/F, Fischer 344, Deaths + Body Weight Changes: decrease + Absolute Organ Weight: Liver increase + Relative Organ Weight: Liver increase + Histopathology: …",< 100 mg/kg-day
O=C([O-])[C@H](O)[C@@H](O)[C@H](O)[C@H](O)CO.[Na+] [Sodium D-gluconate],NOAEL,"short-term, duration: 28 days, diet, CD(SD)",4100 mg/kg-day
same,NOAEL,"short-term, duration: 28 days, diet, Sprague-Dawley",5%
same,NOAEL,"short-term, duration: 28 days, gavage, M, CD(SD), Histopathology: Stomach: Thickening of the limiting ridge",1000 mg/kg-day
same,NOAEL,"short-term, duration: 28 days, gavage, M, CD(SD), Histopathology: Stomach: Thickening, limiting ridge",1000 mg/kg-day
CC1(C)S[C@@H]2[C@H](NC(=O)COc3ccccc3)C(=O)N2[C@H]1C(=O)[O-].[K+] [Penicillin VK],NOEL,"subchronic, duration: 13 weeks, gavage, M/F, Fischer 344, Clinical Observation: Diarrhea + Body Weight Changes: decrease + Histopathology: Stomach/glandular-Mucous cell metaplasia",370 mg/kg-day
C=C(C)CCl [3-Chloro-2-methylpropene],NOEL,"subchronic, duration: 13 weeks, gavage, M/F, Fischer 344, Deaths + Clinical Observation: Rough coat>400 + Body Weight Changes: decrease + Histopathology: Liver-Inflammation, Chronic, Focal Liver-…",100 mg/kg-day
